Results: patent US11040035B2, “3-oxo-2,6-diphenyl-2,3-dihydropyridazine-4-carboxamides” (BAYER PHARMA AKTIENGESELLSCHAFT, priority 2016, dated 2021)

These compounds were tested against T1, AHR (Homo sapiens, UniProt P35869) (assay: In vitro assay 1: antagonism in human cell line (transactivation assay, kynurenic acid prestimulated)). Settings: Assay 1: AHR-luc Hum Antagonism IC50 [M], 150 μM kynurenic acid, 20 hours, firefly luciferase.
T1 sequence (P35869 11-848): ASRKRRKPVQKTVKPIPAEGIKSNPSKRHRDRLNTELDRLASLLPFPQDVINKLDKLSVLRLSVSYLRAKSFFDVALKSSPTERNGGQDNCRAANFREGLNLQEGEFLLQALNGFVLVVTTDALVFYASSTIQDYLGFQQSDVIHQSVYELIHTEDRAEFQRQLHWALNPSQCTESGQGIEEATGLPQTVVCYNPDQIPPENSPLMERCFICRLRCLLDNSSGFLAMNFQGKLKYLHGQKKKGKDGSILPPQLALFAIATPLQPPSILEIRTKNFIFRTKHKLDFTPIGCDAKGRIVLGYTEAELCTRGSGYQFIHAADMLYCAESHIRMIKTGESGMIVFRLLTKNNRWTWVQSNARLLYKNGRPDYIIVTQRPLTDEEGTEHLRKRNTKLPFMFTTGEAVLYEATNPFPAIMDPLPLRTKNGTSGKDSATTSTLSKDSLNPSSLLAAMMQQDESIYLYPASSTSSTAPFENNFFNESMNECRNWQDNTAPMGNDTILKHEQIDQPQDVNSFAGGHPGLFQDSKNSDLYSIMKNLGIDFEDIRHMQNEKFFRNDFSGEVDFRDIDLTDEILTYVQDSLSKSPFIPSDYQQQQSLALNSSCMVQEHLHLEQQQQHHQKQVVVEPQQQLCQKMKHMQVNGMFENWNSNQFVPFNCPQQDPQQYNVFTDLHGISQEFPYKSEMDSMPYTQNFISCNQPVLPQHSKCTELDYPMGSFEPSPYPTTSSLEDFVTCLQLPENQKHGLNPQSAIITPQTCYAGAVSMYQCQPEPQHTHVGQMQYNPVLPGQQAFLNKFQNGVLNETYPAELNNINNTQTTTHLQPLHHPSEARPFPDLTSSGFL
`CC(NC(=O)c1cc(-c2ccc(C(F)(F)F)cc2)nn(-c2cccc(F)c2)c1=O)C(O)C(F)(F)F` (single isomer, unassigned) [Example 268, Isomer no. 1 of 2-(3-fluorophenyl)-3-oxo-N-(4,4,4-trifluoro-3-hydroxybutan-2-yl)-6-[4-(trifluoromethyl)phenyl]-2,3-dihydropyridazine-4-carboxamide] was tested, and the IC50 was greater than 2e-05 M.
With `O=C(NC(CO)C1CCCO1)c1cc(-c2ccc(Cl)cc2)nn(-c2cccc(F)c2)c1=O` (single isomer, unassigned) [Example 317, 1,4-anhydro-5-({[6-(4-chlorophenyl)-2-(3-fluorophenyl)-3-oxo-2,3-dihydropyridazin-4-yl]carbonyl}amino)-2,3,5-trideoxyhexitol] the IC50 was 1.77e-07 M.
`O=C(NC(CO)C1CCCO1)c1cc(-c2ccc(Cl)cc2)nn(-c2cccc(F)c2)c1=O` (single isomer, unassigned) [Example 318, 1,4-anhydro-5-({[6-(4-chlorophenyl)-2-(3-fluorophenyl)-3-oxo-2,3-dihydropyridazin-4-yl]carbonyl}amino)-2,3,5-trideoxyhexitol] was tested, and the IC50 was 5.34e-08 M.
Work on `O=C(NC(CO)C1CCCO1)c1cc(-c2ccc(Cl)cc2)nn(-c2cccc(F)c2)c1=O` (single isomer, unassigned) [Example 319, 1,4-anhydro-5-({[6-(4-chlorophenyl)-2-(3-fluorophenyl)-3-oxo-2,3-dihydropyridazin-4-yl]carbonyl}amino)-2,3,5-trideoxyhexitol] yielded an IC50 of 5.02e-08 M.
Compound `O=C(NC(CO)C1CCCO1)c1cc(-c2ccc(C(F)(F)F)cc2)nn(-c2cccc(F)c2)c1=O` (single isomer, unassigned) [Example 353, 1,4-anhydro-2,3,5-trideoxy-5-[({2-(3-fluorophenyl)-3-oxo-6-[4-(trifluoromethyl)phenyl]-2,3-dihydropyridazin-4-yl}carbonyl)amino]hexitol] has an IC50 of 2e-08 M.
Work on `O=C(NC(CO)C1CCCO1)c1cc(-c2ccc(C(F)(F)F)cc2)nn(-c2cccc(F)c2)c1=O` (single isomer, unassigned) [Example 354, 1,4-anhydro-2,3,5-trideoxy-5-[({2-(3-fluorophenyl)-3-oxo-6-[4-(trifluoromethyl)phenyl]-2,3-dihydropyridazin-4-yl}carbonyl)amino]hexitol] yielded an IC50 of 1.41e-08 M.
Work on `O=C(NC(CO)C1CCCO1)c1cc(-c2ccc(C(F)(F)F)cc2)nn(-c2cccc(F)c2)c1=O` (single isomer, unassigned) [Example 355, 1,4-anhydro-2,3,5-trideoxy-5-[({2-(3-fluorophenyl)-3-oxo-6-[4-(trifluoromethyl)phenyl]-2,3-dihydropyridazin-4-yl}carbonyl)amino]hexitol] yielded an IC50 of 1.2e-07 M.
Compound `COCCC(CO)NC(=O)c1cc(-c2ccc(C(F)(F)F)cc2)nn(-c2cccc(F)c2)c1=O` (single isomer, unassigned; (+)) [Example 332, (+)-2-(3-fluorophenyl)-N-(1-hydroxy-4-methoxybutan-2-yl)-3-oxo-6-[4-(trifluoromethyl)phenyl]-2,3-dihydropyridazine-4-carboxamide] has an IC50 of 6.06e-08 M.
In the case of `Cc1ccc(-c2cc(C(=O)N[C@H](C)CO)c(=O)n(-c3cccc(F)c3)n2)cc1` [Example 9, 2-(3-Fluorophenyl)-N-[(2R)-1-hydroxypropan-2-yl]-6-(4-methylphenyl)-3-oxo-2,3-dihydropyridazine-4-carboxamide], the IC50 is reported as 1.81e-07 M.
With `Cc1ccc(-c2cc(C(=O)NCCO)c(=O)n(-c3cccc(F)c3)n2)cc1` [Example 19, 2-(3-Fluorophenyl)-N-(2-hydroxyethyl)-6-(4-methylphenyl)-3-oxo-2,3-dihydropyridazine-4-carboxamide] the IC50 was 3.91e-07 M.
`CC(CO)NC(=O)c1cc(-c2ccc(Cl)cc2)nn(-c2cccc(F)c2)c1=O` (stereo not shown) [Example 22, 6-(4-Chlorophenyl)-2-(3-fluorophenyl)-N-(1-hydroxypropan-2-yl)-3-oxo-2,3-dihydropyridazine-4-carboxamide] showed an IC50 of 8.39e-08 M.
Compound `CC(C)[C@@H](CO)NC(=O)c1cc(-c2ccc(Cl)cc2)nn(-c2cccc(Cl)c2)c1=O` [Example 59, 2-(3-Chlorophenyl)-6-(4-chlorophenyl)-N-[(2S)-1-hydroxy-3-methylbutan-2-yl]-3-oxo-2,3-dihydropyridazine-4-carboxamide] has an IC50 of 4.96e-08 M.
Work on `CC[C@@H](CO)NC(=O)c1cc(-c2ccc(Cl)cc2)nn(-c2cccc(Cl)c2)c1=O` [Example 60, 2-(3-Chlorophenyl)-6-(4-chlorophenyl)-N-[(2S)-1-hydroxybutan-2-yl]-3-oxo-2,3-dihydropyridazine-4-carboxamide] yielded an IC50 of 6.6e-08 M.
In the case of `CC(C)C[C@@H](CO)NC(=O)c1cc(-c2ccc(Cl)cc2)nn(-c2cccc(Cl)c2)c1=O` [Example 61, 2-(3-Chlorophenyl)-6-(4-chlorophenyl)-N-[(2S)-1-hydroxy-4-methylpentan-2-yl]-3-oxo-2,3-dihydropyridazine-4-carboxamide], the IC50 is reported as 5.14e-07 M.
For `O=C(NCC(O)C(F)(F)F)c1cc(-c2ccc(Cl)cc2)nn(-c2cccc(Cl)c2)c1=O` (stereo not shown) [Example 62, 2-(3-Chlorophenyl)-6-(4-chlorophenyl)-3-oxo-N-(3,3,3-trifluoro-2-hydroxypropyl)-2,3-dihydropyridazine-4-carboxamide], the IC50 was 1.5e-07 M.
For `CC(CO)NC(=O)c1cc(-c2ccc(Cl)cc2)nn(-c2cccc(Cl)c2)c1=O` (stereo not shown) [Example 65, 2-(3-Chlorophenyl)-6-(4-chlorophenyl)-N-(1-hydroxypropan-2-yl)-3-oxo-2,3-dihydropyridazine-4-carboxamide], the IC50 was 3e-07 M.
With `CC(C)C(O)CNC(=O)c1cc(-c2ccc(Cl)cc2)nn(-c2cccc(Cl)c2)c1=O` (stereo not shown) [Example 67, 2-(3-Chlorophenyl)-6-(4-chlorophenyl)-N-(2-hydroxy-3-methylbutyl)-3-oxo-2,3-dihydropyridazine-4-carboxamide] the IC50 was 3.89e-07 M.
Compound `Cc1ccc(-c2cc(C(=O)N[C@H](CO)C(C)C)c(=O)n(-c3ccccc3)n2)cc1` [Example 71, N-[(2S)-1-hydroxy-3-methylbutan-2-yl]-6-(4-methylphenyl)-3-oxo-2-phenyl-2,3-dihydropyridazine-4-carboxamide] has an IC50 of 4.05e-08 M.
`Cc1ccc(-c2cc(C(=O)N[C@@H](CO)C(C)C)c(=O)n(-c3ccccc3)n2)cc1` [Example 72, N-[(2R)-1-hydroxy-3-methylbutan-2-yl]-6-(4-methylphenyl)-3-oxo-2-phenyl-2,3-dihydropyridazine-4-carboxamide] was tested, and the IC50 was 2.11e-06 M.
In the case of `Cc1ccc(-c2cc(C(=O)NC(C)CO)c(=O)n(-c3ccccc3)n2)cc1` (stereo not shown) [Example 73, N-(1-hydroxypropan-2-yl)-6-(4-methylphenyl)-3-oxo-2-phenyl-2,3-dihydropyridazine-4-carboxamide], the IC50 is reported as 3.07e-07 M.
With `Cc1ccc(-c2cc(C(=O)NCCO)c(=O)n(-c3ccccc3)n2)cc1` [Example 74, N-(2-hydroxyethyl)-6-(4-methylphenyl)-3-oxo-2-phenyl-2,3-dihydropyridazine-4-carboxamide] the IC50 was 2.1e-06 M.
With `CC(CO)NC(=O)c1cc(-c2ccc(Cl)cc2)nn(-c2ccccc2)c1=O` (stereo not shown) [Example 79, 6-(4-chlorophenyl)-N-(1-hydroxypropan-2-yl)-3-oxo-2-phenyl-2,3-dihydropyridazine-4-carboxamide] the IC50 was 2.82e-07 M.
`C[C@H](CO)NC(=O)c1cc(-c2ccc(Cl)cc2)nn(-c2ccccc2)c1=O` [Example 81, 6-(4-chlorophenyl)-N-[(2R)-1-hydroxypropan-2-yl]-3-oxo-2-phenyl-2,3-dihydropyridazine-4-carboxamide] showed an IC50 of 1.12e-06 M.
With `Cc1ccc(-c2cc(C(=O)NC(CO)C(C)C)c(=O)n(-c3cccc(F)c3)n2)cc1C` (stereo not shown) [Example 82, 6-(3,4-dimethylphenyl)-2-(3-fluorophenyl)-N-(1-hydroxy-3-methylbutan-2-yl)-3-oxo-2,3-dihydropyridazine-4-carboxamide] the IC50 was 1.03e-07 M.
In the case of `Cc1ccc(-c2cc(C(=O)N[C@@H](CO)C(C)C)c(=O)n(-c3cccc(F)c3)n2)cc1C` [Example 84, 6-(3,4-dimethylphenyl)-2-(3-fluorophenyl)-N-[(2R)-1-hydroxy-3-methylbutan-2-yl]-3oxo-2,3-dihydropyridazine-4-carboxamide], the IC50 is reported as 3.66e-06 M.
For `CCC(CO)NC(=O)c1cc(-c2ccc(C)c(C)c2)nn(-c2cccc(F)c2)c1=O` (stereo not shown) [Example 85, 6-(3,4-dimethylphenyl)-2-(3-fluorophenyl)-N-(1-hydroxybutan-2-yl)-3-oxo-2,3-dihydropyridazine-4-carboxamide], the IC50 was 8.61e-08 M.
With `CC[C@H](CO)NC(=O)c1cc(-c2ccc(C)c(C)c2)nn(-c2cccc(F)c2)c1=O` [Example 87, 6-(3,4-dimethylphenyl)-2-(3-fluorophenyl)-N-[(2R)-1-hydroxybutan-2-yl]-3-oxo-2,3-dihydropyridazine-4-carboxamide] the IC50 was 7.26e-07 M.
Compound `Cc1ccc(-c2cc(C(=O)NC(C)CO)c(=O)n(-c3cccc(F)c3)n2)cc1C` (stereo not shown) [Example 88, 6-(3,4-dimethylphenyl)-2-(3-fluorophenyl)-N-(1-hydroxypropan-2-yl)-3-oxo-2,3-dihydropyridazine-4-carboxamide] has an IC50 of 1.46e-07 M.
